Assay results as given in patent US20250222146A1, “Radiopharmaceuticals Targeting Somatostatin Receptor 2 and Uses Thereof” (RayzeBio, Inc., priority 2023, published 2025).
Read-outs that look alike come from different tables or passages of the source. Numbered stars: 1 amine (or outer) side, 2 acyl side, 3 side chain; on linkers, the order of the positions; unused ones are H or OH. Square brackets hold non-standard residues; d marks the D form. Side chains are listed from the residue outwards. Peptide text beside a SMILES is read from it. * marks the point of attachment. DOTA(Lu)NH(CH2)6NHCOCH2 = O=C(CN1CCN2CCN3CCN(CC1)CC(=O)[O][Lu]([O]C(=O)C2)[O]C(=O)C3)NCCCCCCNC(=O)C*; Ala(piperidin-4-yl) = O=C([C@H](CC1CCN([*:3])CC1)N[*:1])[*:2]; DOTA = O=C(O)CN1CCN(CC(=O)O)CCN(CC(=O)*)CCN(CC(=O)O)CC1; dTrp(βS-Me) = C[C@@H](c1c[nH]c2ccccc12)[C@@H](N)C(=O)O; Ala(piperazin-1-yl) = N[C@@H](CN1CCNCC1)C(=O)O; X2 = O=C([C@H](CCC1CNC1)N[*:1])[*:2]; Ethylenediamine = C(CN[*:2])N[*:1]; Lys(Me2) = CN(C)CCCC[C@H](N)C(=O)O; Hyp = O=C(O)[C@@H]1C[C@@H](O)CN1; Lys(Me) = CNCCCC[C@H](N)C(=O)O; NMehCys = CN[C@@H](CCS)C(=O)O; CO = O=C([*:1])[*:2]; Bn = c1ccc(C*)cc1; X1 = C1NCC1*

How the values were obtained:
[1] = Peptide conjugate biodistribution measured by tissue PK (ICP-MS, % ID/g in kidney tissue at 2 h); type: in vivo; details: 2 h time point, mouse
Description: Macrocyclic peptides and conjugates described herein were tested for tissue distribution by measuring concentrations in tissues by MS using in vivo animal models. Peptide metal chelates were dosed to animals and tissues were collected at specific time points based off the peptide PK profile. The samples were then analyzed by MS and the results reported as % ID/g (% injected dose/gram). Radiopharmaceutical conjugates of the present disclosure have improved tissue distribution for radiopharmaceutical therapeutics.
Peptide metal chelate doses were suspended in phosphate-buffered saline (PBS) containing 0.1% Tween 80. An injection volume of 100 μL per mouse was used, and blood and tissue samples were collected, weighed, and stored frozen at-80° C. until analysis. Tissue samples were digested with concentrated nitric acid in a microwave digestion apparatus. The sample digest was diluted with internal standard and analyzed using inductively coupled plasma mass spectrometry (ICP-MS). ICP-MS is an elemental analysis technique used to measure elements by using argon plasma to convert the sample into ions that are then measured using the mass spectrometer. Calibration standards were used for quantification of element(s) of interest by constructing a multipoint standard curve covering the range of analyte concentrations anticipated in the samples (typical range is 500 ppt to 0.1 ppt). A single quadrupole instrument (iCAP RQ, Thermo Fisher) ICP-MS was coupled with a Teledyne CETAC autosampler and used for the sample analysis.
The % ID/g of conjugate in kidney tissue at the 2-hour time point (2 h) was quantified for various conjugates, and the results are shown in Table 10. Lower kidney tissue % ID/g values indicate lower distribution to the kidney after administration of the conjugate.

SSTR2 = SSTR2 (Homo sapiens, UniProt P30874); test: SSTR binding affinity by radioligand binding competition assay ([125I]-Tyr11-Somatostatin, membrane extracts)
Chain of SSTR2 (P30874 whole entry): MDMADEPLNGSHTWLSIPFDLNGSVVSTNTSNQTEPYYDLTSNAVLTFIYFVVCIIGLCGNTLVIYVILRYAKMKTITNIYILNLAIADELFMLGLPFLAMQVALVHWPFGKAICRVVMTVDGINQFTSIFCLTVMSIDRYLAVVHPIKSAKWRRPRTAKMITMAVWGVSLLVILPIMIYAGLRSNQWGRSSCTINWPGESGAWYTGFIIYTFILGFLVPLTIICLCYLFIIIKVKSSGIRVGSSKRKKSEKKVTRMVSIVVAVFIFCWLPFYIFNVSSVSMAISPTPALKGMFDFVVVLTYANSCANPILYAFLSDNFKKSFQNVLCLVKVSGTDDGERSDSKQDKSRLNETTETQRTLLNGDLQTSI

[2] = radioligand competition, [125I]-Tyr11-Somatostatin 0.1 nM, membrane extracts; Ki from IC50 by Cheng Prusoff; read-out: SSTR2 Ki
[3] = SSTR2 Ki, radioligand competition, [125I]-Tyr11-Somatostatin 0.1 nM, membrane extracts; Ki from IC50 by Cheng Prusoff

Row | Structure (SMILES) | tissue uptake at 2 h [1] [%ID/g] | Ki (SSTR2; [2]) [nM] | Ki (SSTR2; [3]) [nM] | Ki (SSTR2; read-out: SSTR2 Ki; radioligand competition, [125I]-Tyr11-Somatostatin 0.1 nM, membrane extracts; Ki from IC50 by Cheng Prusoff) [nM]
1 | C[C@@H](O)[C@@H]1NC(=O)[C@H](COC2CNC2)NC(=O)[C@@H](Cc2c[nH]c3ccccc23)NC(=O)[C@H](Cc2ccc(O)cc2)NC(=O)[C@H](CCSCC(=O)NCCCCCCNC(=O)CN2CCN3CCN4CCN(CC2)CC(=O)[O][Lu]([O]C(=O)C3)[O]C(=O)C4)N(C)C(=O)[C@H](Cc2ccccc2)NC1=O [RB-0006013] (cyclo(F[NMehCys](DOTA(Lu)NH(CH2)6NHCOCH2)Y[dW]S(X1)T)) | 3 | 1 to 3.33 | – | –
2 | C[C@@H](O)[C@@H]1NC(=O)[C@H](CN2CCNCC2)NC(=O)[C@@H]([C@@H](C)c2c[nH]c3ccccc23)NC(=O)[C@H](Cc2ccc(O)cc2)NC(=O)[C@H](CCSCC(=O)NCCCCCCNC(=O)CN2CCN3CCN4CCN(CC2)CC(=O)[O][Lu]([O]C(=O)C3)[O]C(=O)C4)N(C)C(=O)[C@H](Cc2ccccc2)NC1=O [RB-0006072] (cyclo(F[NMehCys](DOTA(Lu)NH(CH2)6NHCOCH2)Y[dTrp(βS-Me)][Ala(piperazin-1-yl)]T)) | 2.7 | < 1 | – | –
3 | CNCCCC[C@@H]1NC(=O)[C@@H](Cc2c[nH]c3ccccc23)NC(=O)[C@H](Cc2ccc(O)cc2)NC(=O)[C@H](CCSCC(=O)NCCCCCCNC(=O)CN2CCN3CCN4CCN(CC2)CC(=O)[O][Lu]([O]C(=O)C3)[O]C(=O)C4)N(C)C(=O)[C@H](Cc2ccccc2)NC(=O)[C@H]([C@@H](C)O)NC1=O [RB-0005799] (cyclo(F[NMehCys](DOTA(Lu)NH(CH2)6NHCOCH2)Y[dW][Lys(Me)]T)) | 2.3 | < 1 | – | –
4 | C[C@@H](O)[C@@H]1NC(=O)[C@H](CC2CCNCC2)NC(=O)[C@@H]([C@@H](C)c2c[nH]c3ccccc23)NC(=O)[C@H](Cc2ccc(O)cc2)NC(=O)[C@H](CCSCC(=O)NCCCCCCNC(=O)CN2CCN3CCN4CCN(CC2)CC(=O)[O][Lu]([O]C(=O)C3)[O]C(=O)C4)N(C)C(=O)[C@H](Cc2ccccc2)NC1=O [RB-0005760] (cyclo(F[NMehCys](DOTA(Lu)NH(CH2)6NHCOCH2)Y[dTrp(βS-Me)][Ala(piperidin-4-yl)]T)) | 2.7 | < 1 | – | –
5 | C[C@@H](O)[C@@H]1NC(=O)[C@H](CCC2CNC2)NC(=O)[C@@H](Cc2c[nH]c3ccccc23)NC(=O)[C@H](Cc2ccc(O)cc2)NC(=O)[C@H](CCSCC(=O)NCCCCCCNC(=O)CN2CCN3CCN4CCN(CC2)CC(=O)[O][Lu]([O]C(=O)C3)[O]C(=O)C4)N(C)C(=O)[C@H](Cc2ccccc2)NC1=O [RB-0005897] (cyclo(F[NMehCys](DOTA(Lu)NH(CH2)6NHCOCH2)Y[dW][X2]T)) | 2.5 | < 1 | – | –
6 | C[C@@H](O)[C@@H]1NC(=O)[C@H](CN2CCNCC2)NC(=O)[C@@H](Cc2c[nH]c3ccccc23)NC(=O)[C@H](Cc2ccc(O)cc2)NC(=O)[C@H](CCSCC(=O)NCCCCCCNC(=O)CN2CCN3CCN4CCN(CC2)CC(=O)[O][Lu]([O]C(=O)C3)[O]C(=O)C4)N(C)C(=O)[C@H](Cc2ccccc2)NC1=O [RB-0005805] (cyclo(F[NMehCys](DOTA(Lu)NH(CH2)6NHCOCH2)Y[dW][Ala(piperazin-1-yl)]T)) | 2.5 | – | < 1 | –
7 | C[C@@H](O)[C@@H]1NC(=O)[C@H](CCCCN(C)C)NC(=O)[C@@H](Cc2c[nH]c3ccccc23)NC(=O)[C@H](Cc2ccc(O)cc2)NC(=O)[C@H](CCSCC(=O)NCCCCCCNC(=O)CN2CCN3CCN4CCN(CC2)CC(=O)[O][Lu]([O]C(=O)C3)[O]C(=O)C4)N(C)C(=O)[C@H](Cc2ccccc2)NC1=O [RB-0005801] (cyclo(F[NMehCys](DOTA(Lu)NH(CH2)6NHCOCH2)Y[dW][Lys(Me2)]T)) | 2 | 1 to 3.33 | – | –
8 | C[C@@H](O)[C@@H]1NC(=O)[C@H](CCCCN)NC(=O)[C@@H](Cc2c[nH]c3ccccc23)NC(=O)[C@H](Cc2ccc(O)cc2)NC(=O)[C@H](CCSCC(=O)NCCCCCCNC(=O)CN2CCN3CCN4CCN(CC2)CC(=O)[O][Lu]([O]C(=O)C3)[O]C(=O)C4)N(C)C(=O)[C@H](Cc2ccccc2)NC1=O [RB-0003149] | 8.4 | – | < 1 | –
9 | C[C@@H](c1c[nH]c2ccccc12)[C@H]1NC(=O)[C@H](Cc2ccc(O)cc2)NC(=O)[C@@H]2C[C@@H](OC(=O)NCCNC(=O)CN3CCN(CC(=O)O)CCN(CC(=O)O)CCN(CC(=O)O)CC3)CN2C(=O)[C@H](Cc2ccccc2)NC(=O)[C@H](Cc2ccc(OCc3ccccc3)cc2)NC(=O)[C@H](CC2CCNCC2)NC1=O [RB-0006393] (cyclo(F[Hyp]([CO-Ethylenediamine-DOTA])Y[dTrp(βS-Me)][Ala(piperidin-4-yl)]Y(Bn))) | – | – | – | < 1
